“And” between values parts separate entries of the source, which are not always exact repeats. Equal values may be shown once.

The source of these data is patent US5114961A, “2,5-diaryl tetrahydrofurans and analogs thereof as PAF antagonists” (Merck & Co., Inc., priority 1990, dated 1992).

T1 sequence (P25105 whole entry): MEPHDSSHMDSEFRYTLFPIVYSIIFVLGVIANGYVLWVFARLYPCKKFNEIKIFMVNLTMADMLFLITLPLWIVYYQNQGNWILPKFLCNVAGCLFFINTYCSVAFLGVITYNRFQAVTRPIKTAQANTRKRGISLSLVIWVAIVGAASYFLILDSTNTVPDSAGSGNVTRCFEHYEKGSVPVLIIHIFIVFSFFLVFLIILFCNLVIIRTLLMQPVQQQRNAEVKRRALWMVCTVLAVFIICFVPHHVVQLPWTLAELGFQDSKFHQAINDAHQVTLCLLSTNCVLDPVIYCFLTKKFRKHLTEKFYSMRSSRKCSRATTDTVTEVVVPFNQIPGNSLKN

One assay addresses T1, PAF specific receptor binding site (human platelet membranes) (Homo sapiens, UniProt P25105).
T1 construct: platelet membranes at a drug concentration of 3 nM; from tissue; host or cells: human platelet plasma membranes
Briefly: Inhibition of [3H]N-methylcarbamoyl-PAF binding to human platelet membranes. The conditions noted are these: drug concentration of 3 nM, trans configuration. The protocol:
The ability of a compound of formula (I) to inhibit the PAF binding to its specific receptor binding site on rabbit or human platelet or PMN plasma membranes was measured by a recently developed assay.
The inhibition of ^3 [H]-PAF or ^3 [H]-N-methyl carbamoyl-TAF binding to the human or rabbit platelet or PMN plasma membrane by a PAF antagonist of formula (I) was determined by a method employing isotopic labeling and filtration techniques. Generally, a series of Tris-buffered solutions of the selected antagonist at predetermined concentrations were prepared. Each of these solutions contains 1 pmole of ^3 H-PAF, a known amount of the test antagonist, and a sufficient amount of the pH 7.5 Tris-buffer solution (10mM Tris, 0.25% bovine serum albumin, and 150 mM NaCl per ml water) to make the final volume of 1 ml. After adding into a set of test tubes each with 100 μg of the platelet plasma membrane suspension (S. B. Hwang, et. al., Biochemistry, Vol. 22 pp. 4756-4763, 1983) and one of the Tris-buffer solutions described above, the resulting mixture in each test tube was incubated at 0° C. for about one hours or until the reaction was complete. Two control samples, one of which (C1) contains all the ingredients described above except the antagonist and the other (C2) contains C1 plus a 100-fold excess of unlabeled PAF, were also prepared and incubated simultaneously with the test samples. After the incubation was completed, the contents of each test tube were filtered under vacuo through a Whatman GF/C fiberglass filter and the residue washed rapidly several times with a total of 20 ml cold (0°-5° C.) Tris-buffer solution. Each washed residue was then suspended in 10 ml scintillation solution (Aquasol 2, New England Nuclear, Conn.) and the radioactivity was counted in a Packard Tri-Carb 460CD Liquid Scintillation System. Defining the counts from a test sample as "Total binding with antagonist"; the counts from the control sample C1, as "Total binding C1 "; and the counts from the control sample C2 as "non-specific binding C2 ", the percent inhibition of each test antagonist can be determined by the following equations: [formula]
Compound `CCCOc1c(OCCn2ccnc2)cc([C@@H]2CC[C@@H](c3cc(OC)c(OC)c(OC)c3)O2)cc1S(=O)(=O)CC(C)O` (relative stereo) [trans-2-[3-(2-Hydroxy-n-propylsulfonyl-4-n-propoxy-5-{2-(1-imidazolyl)ethoxy}phenyl]-5-(3,4,5-trimethoxyphenyl)tetrahydrofuran] showed an inhibition at 0.003 µM of 48%.
Turning to `CCCOc1c(OCCN2CCOCC2)cc([C@@H]2CC[C@@H](c3cc(OC)c(OC)c(OC)c3)O2)cc1S(=O)(=O)CC(C)O` (relative stereo) [trans-2-[3-(2-Hydroxypropylsulfonyl)-4-n-propoxy-5-{2-(1-morpholino)-n-ethoxy}phenyl]-5-(3,4,5-trimethoxyphenyl)tetrahydrofuran], the inhibition at 0.003 µM came to 20%.
In turn, `CCCOc1c(OCCCCn2ccnc2)cc([C@H]2CC[C@H](c3cc(OC)c(OC)c(OC)c3)O2)cc1S(=O)(=O)CC(C)O` (relative stereo) [trans-2-[3-(2-Hydroxy-n-propylsulfonyl)-4-n-propoxy-5-{4-(1-imidazolyl)butoxy}phenyl]-5-(3,4,5-trimethoxyphenyl)tetrahydrofuran] came in with an inhibition at 0.003 µM of 43%.
On the same count and under the same terms, the same measure for `CCCS(=O)(=O)c1cc([C@@H]2CC[C@@H](c3cc(OC)c(OC)c(OC)c3)O2)cc(OCCN2CCOCC2)c1OCCCCCCO` (relative stereo) [trans-2-[3-n-Propylsulfonyl-4-(6-hydroxy-n-hexyloxy)-5-{2-(1-morpholino)-ethoxy}phenyl]5-(3,4,5-trimethoxyphenyl)tetrahydrofuran]: 55%.
Still for that read-out and setting: the same measure for `CCCOc1c(OCCCSc2nc[nH]n2)cc([C@@H]2CC[C@@H](c3cc(OC)c(OC)c(OC)c3)O2)cc1S(=O)(=O)CC(C)O` (relative stereo) [trans-2-[3-(2-Hydroxy-n-propylsulfonyl)-4-n-propoxy-5-{3-(1H-1,2,4-triazolyl-3-thio)propoxy}phenyl]-5-(3,4,5-trimethoxyphenyl)tetrahydrofuran]: 61%.
For `CCCOc1c(OCCCSc2ncc[nH]2)cc([C@H]2CC[C@H](c3cc(OC)c(OC)c(OC)c3)O2)cc1S(=O)(=O)CC(C)O` (relative stereo) [trans-2-[3-(2-Hydroxy-n-propylsulfonyl)-4-n-propoxy-5-{3-(2-imidazolylthio)n-propoxy}phenyl]-5-(3,4,5-trimethoxyphenyl)tetrahydrofuran], the inhibition at 0.003 µM amounted to 46%.
Take `CCCOc1c(OCCCCN2CCOCC2)cc([C@@H]2CC[C@@H](c3cc(OC)c(OC)c(OC)c3)O2)cc1S(=O)(=O)CC(C)=O` (relative stereo) [trans-2-[3-(2-Oxopropylsulfonyl)-4-n-propoxy-5-{4-(1-morpholino)-n-butoxy}phenyl]-5-(3,4,5-trimethoxyphenyl)tetrahydrofuran]: 0.003 µM produced 30% inhibition.
`CCCOc1c(OCCSc2ncc[nH]2)cc([C@H]2CC[C@H](c3cc(OC)c(OC)c(OC)c3)O2)cc1S(=O)(=O)CC(C)=O` (relative stereo) [trans-2-[3-(2-Oxopropylsulfonyl)-4-n-propoxy-5-{2-(2-imidazolylthio)ethoxy}phenyl]-5-(3,4,5-trimethoxyphenyl)tetrahydrofuran]: 0.003 µM produced 55% inhibition.
The same measure, in the same setting: the same measure for `CCCS(=O)(=O)c1cc([C@@H]2CC[C@@H](c3cc(OC)c(OC)c(OC)c3)O2)cc(OC)c1OCCSc1ccc(-c2nn[nH]n2)cc1` (relative stereo) [trans-2-[3-n-Propylsulfonyl-4-{2-(4-(2-tetrazo)phenylthio)ethoxy}-5-methoxyphenyl]-5-(3,4,5-trimethoxyphenyl)tetrahydrofuran]: 52%; for `CCCOc1c(OCCCn2ccnc2)cc([C@H]2CC[C@H](c3cc(OC)c(OC)c(OC)c3)O2)cc1S(=O)(=O)CC(C)O` (relative stereo) [trans-2-[3-(2-Hydroxy-n-propylsulfonyl)-4-n-propoxy-5-{3-(1-imidazolyl)propoxy}phenyl]-5-(3,4,5-trimethoxyphenyl)tetrahydrofuran]: 41%; for `CCCOc1c(OCCCN2CCOCC2)cc([C@@H]2CC[C@@H](c3cc(OC)c(OC)c(OC)c3)O2)cc1S(=O)(=O)CC(C)=O` [(-)-(2S,5S)-[3-(2-Oxopropylsulfonyl)-4-n-propoxy-5-{3-(1-morpholino)-n-propoxy}phenyl]-5-(3,4,5-trimethoxyphenyl)tetrahydrofuran]: 41%.
With `CCCS(=O)(=O)c1cc([C@H]2CC[C@H](c3cc(OC)c(OC)c(OC)c3)O2)cc(OC)c1OCCSc1ccc(C#N)cc1` (relative stereo) [trans-2-[3-n-Propylsulfonyl-4-{2-(4-cyanophenylthio)ethoxy}-5-methoxyphenyl]-5-(3,4,5-trimethoxyphenyl) tetrahydrofuran], the inhibition at 0.003 µM was determined as 93%.
On the same count and under the same terms, as for `CCCS(=O)(=O)c1cc([C@@H]2CC[C@@H](c3cc(OC)c(OC)c(OC)c3)O2)cc(OCCCN2CCOCC2)c1OCCCCCCO` (relative stereo) [trans-2-]3-n-Propylsulfonyl-4-(6-hydroxyhexyloxy)-5-{3-(1-morpholino)n-propoxy}phenyl]-5-trimethoxyphenyl)tetrahydrofuran], the figure is 48%; as for `CCCOc1c(OCCN2CCOCC2)cc([C@@H]2CC[C@@H](c3cc(OC)c(OC)c(OC)c3)O2)cc1S(=O)(=O)CC(C)=O` (relative stereo) [trans-2-[3-(2-Oxopropylsulfonyl)-4-n-propoxy-5-{2-(1-morpholino)-ethoxy}phenyl]-5-(3,4,5-trimethoxyphenyl)tetrahydrofuran], 25%.
The same measure, in the same setting: as for `CCCOc1cc([C@@H]2CC[C@@H](c3cc(OC)c(OC)c(OC)c3)O2)cc(S(=O)(=O)CCN2CCOCC2)c1OCCC` (relative stereo) [trans-2-[3-(2-N-Morpholinoethylsulfonyl)-4,5-di-n-propoxyphenyl]-5-(3,4,5-trimethoxyphenyl)tetrahydrofuran], the figure is 17%.

Still in this assay, the particulars now being: drug concentration of 3 nM, trans configuration, 0.003 µM.
As for `CCCS(=O)(=O)c1cc([C@H]2CC[C@H](c3cc(OC)c(OC)c(OC)c3)O2)cc(OC)c1OCCSc1ccc(O)cc1` (relative stereo) [trans-2-[3-Propylsulfonyl-4-{2-(4-hydroxyphenylthio)-ethoxy}-5-methoxyphenyl]-5-(3,4,5-trimethoxyphenyl) tetrahydrofuran], the “% Inhibition of the binding of [3H]N-methylcarbamoyl-PAF to human platelet membranes” value was 60% and 100%.
